Reference: patent US9394544B2, “Ameliorating oxidative stress in neurodegenerative disease via Nox1 targeting” (University of Central Florida Research Foundation, Inc., priority 2013, dated 2016)

Key:
[1] = system: SN DA neurons; test: Stereologic counting of TH-immunostained DA neurons in the SN, 6-OHDA rat model; format: in vivo; settings: direct injection into the rat SN, in 2 weeks
Description: The experiments were carried out on rats, in accordance with the NIH Guide for the Care and Use of Laboratory Animals. All procedures were approved by the local Animal Care and Use Committee. Female Sprague Dawley (SD) rats (Charles River; 8-weeks-old at the time of the beginning of AAV expression or 6-OHDA treatment, 2 or 3 per cage) were maintained in a temperature/humidity-controlled environment under a 12 h light/dark cycle with free access to food and water. All rats were respectively allocated into […], Nox1 shRNA/AAV, T17N Rac1/AAV, and scramble (scb) shRNA/AAV or empty vector/AAV as control groups. Rats were deeply anesthetized (ketamine and xylazine mixture 30 mg/kg, i.p.) and placed in a rat stereotaxic apparatus, a site in the right substantia nigra (SN) [coordinate: anteroposterior (AP), −5.3 mm; mediolateral (ML), +2.0 mm; dorsoventral (DV), −5.8 mm] was selected to inject scb shRNA/AAV (n=8), Nox1 shRNA/AAV (n=16), T17N Rac1/AAV (n=16), and empty vector/AAV (n=28), respectively, according to the grouping. […]
A set consisting of six sections, 360 μm apart, were prepared. […] Numbers of TH-immunoreactive cells in the substantia nigra (SN) were counted using the optical fractionator (West 1990). […] The coefficient of error and coefficient of variation were also determined.

[2] = system: rat SN; test: Immunohistochemistry of SN sections, PQ rat model; format: in vivo
Description: The experiments were performed on rats, in accordance with the National Institutes for Health Guide for the Care and Use of Laboratory Animals. All procedures were approved by the local Animal Care and Use Committee. Male Wistar rats (8-10 weeks; Charles River) were maintained in a temperature/humidity-controlled environment under a 12 h light/dark cycle with ad libitum access to food and water. As depicted in FIG. 13A, each animal received four intraperitoneal injections, separated by 1 d, of either vehicle (saline) or PQ (10 mg/kg body weight; b.w.), according to a previously published dose (Manning-Bog et al., 2002; Harraz et al., 2008; Cristovao et al., 2009). All animals were weighed at day 1 and 12. In the studies using the paradigm depicted in FIG. 13A, 4 weeks before starting PQ intraperitoneal injection, animals were stereotaxically injected with various viral constructs at the right SN using the following coordinates: mediolateral, +2.0; anteroposterior, −5.3; dorsoventral, −6.8. Animals were organized into four groups: vector+vehicle: stereotaxically injected with adeno-associated virus (AAV) particles containing a green fluorescent protein (GFP) vector (vector) and then intraperitoneally injected with saline (vehicle) (n=10); vector+PQ: stereotaxically injected with vector and then intraperitoneally injected with PQ (n=10); shNox1+PQ: stereotaxically injected with AAV particles harboring Nox1 shRNA and then intraperitoneally injected with PQ (n=10); shNox1+vehicle: stereotaxically injected with Nox1 shRNA and then intraperitoneally injected with vehicle (n=8). AAV containing GFP vector was used as a negative control. Five days after the last PQ intraperitoneal injection, animals were killed. For Western blot analysis, brains were collected and total protein lysates from SN were prepared. For immunohistochemical analysis, animals were intracardially perfused before collecting the brains.
Following perfusion with saline and 4% PFA in PBS, brains were removed, and forebrain and midbrain blocks were immersion fixed in 4% PFA and cryoprotected in sucrose. Serial coronal sections (40 μm) were cut on a cryostat, collected in cryopreservative solution, and stored at −20° C. For immunolabeling studies, sections were incubated at room temperature with blocking solution for 1 h (5% FBS and 0.3% Triton X-100 in PBS, pH 7.5) and then with primary antibodies overnight. Finally, sections were incubated with secondary antibodies in blocking solution at room temperature for 1 h. The primary antibodies used were mouse anti-TH (1:10,000), rabbit anti-Nox1 (1:500), goat anti-4-HNE (1:700), mouse anti-ubiquitin (1:250), rabbit anti-α-synuclein (1:150), and rabbit anti-A11 oligomers (2.5 μg/ml). The secondary antibodies were biotinylated anti-rabbit IgG, anti-goat IgG, or anti-rat IgG (1:200). The staining procedure was performed as indicated by the manufacturer of the Vectastain ABC kit and the reaction product visualized using 3,3′-diaminobenzidine (DAB) reagent in TBS containing 0.02% H2O2. The numbers of TH-immunoreactive cells in the SN were counted using an optical fractionator. Analysis was performed using a system consisting of a Nikon Eclipse E600 microscope (Morrell Instruments) equipped with a computer-controlled LEP BioPoint motorized stage (Ludl Electronic Products), a DEI-750 video camera (Meyer Instruments), a Dell Dimension 4300 computer (Dell), and the Stereo Investigator (v. 4.35) software program (Microbrightfield).
Immunocytochemistry for proteinase K (PK)-resistant α-synuclein was performed based on a methodology reported previously (Neumann et al., 2002), with some modifications. Briefly, fixed cells were permeabilized with 0.1% Tween 20 and then digested for 30 min at 37° C. with PK (10 μg/ml). PK was inactivated with 3 M guanidine thiocyanate in 10 mM Tris-HCl solution for 10 min. Between each step, cells were washed gently three times with PBS. […]

SMILES	loss of TH-positive SNDA neurons [1]	immunoreactivity of A11 oligomers in the SN ([2]; PQ, PQ with Nox1 knocked down)	α-Synuclein immunoreactivity in the SN ([2]; rats, PQ vs vehicle)	4-HNE immunoreactivity (lipid peroxidation) in the SN ([2]; rats, PQ vs vehicle, Nox1 shRNA+PQ vs PQ)	Nox1 immunoreactivity in the SN ([2]; rats, PQ vs vehicle, Nox1 shRNA+PQ vs vector+PQ)	PK-resistant α-synuclein immunoreactivity in the rat SN ([2]; vector+PQ vs vector+vehicle, Nox1 shRNA+PQ)	ubiquitin immunoreactivity in the rat SN ([2]; vector+PQ, Nox1 shRNA+PQ)
NCCc1cc(O)c(O)cc1O [6-OHDA, 6-hydroxydopamine]	90%-95%	–	–	–	–	–	–
C[n+]1ccc(-c2cc[n+](C)cc2)cc1 [PQ, paraquat]	–	significant increase	increased	increase	upregulation	increase	significant increase
